Patent publication US20080234188A1, “Antimicrobial Peptides” (The Hospital for Sick Children, priority 2001, published 2008)
In brackets after ≈: the same amount, converted by molar mass. Where a SMILES comes first, the peptide text is derived from it. Where no end group is shown, it is not given here.

Columns and labels:
E. coli DC2 = assay: Assay of antibacterial activity (MIC), E. coli DC2; assay type: cell-based, Escherichia coli; settings: Table 3; Gram-negative
Source text: (§1) The bacterial strains used were E. coli C498, E. coli C500, Escherichia coli UB1005 and its antibiotic supersusceptible derivative DC2 (22); a clinical isolate of Staphylococcus epidermidis (C621); coryneform bacterial strain Corynebacterium xerosis (C875); and E. coli ATCC 25922, Staphylococcus aureus ATCC 25923, Enterococcus faecalis ATCC 29212, Bacillus subtilis ATCC 6633 and Pseudomonas aeruginosa ATCC 27853, all from American Type Culture Collection.
(§2) Peptide antibacterial activity was assessed by the method of R. Hancock et al. (Wu & Hancock (1999), J. Biol. Chem., v. 274, pp. 29-35). Test strains of bacteria from Mueller Hinton agar (MHA) plates were inoculated into 5 ml Mueller Hinton Broth (MHB) in tubes and grown overnight at 37° C. on a shaker (180 rpm). Serial dilutions of test peptides (at 10 times the required test concentrations) were made in 0.01% acetic acid, 0.2% BSA, in polypropylene or coated glass tubes as follows: the test peptide was (a) dissolved in distilled water at 20 times the required maximum concentration (enough final volume for all tests to be performed on a given day); (b) diluted into an equal volume of 0.02% acetic acid, 0.4% BSA to give 10 times the required maximum concentration; (c) serial doubling dilutions were performed in 0.01% acetic acid, 0.2% BSA to provide serial dilutions of peptides at 10 times the required test concentrations, e.g., 640, 320, 160, . . . 2.5 μg/ml. (No deleterious effects of long-term storage of peptides in these media have been detected). Overnight bacterial cultures were diluted in MHB to give 2−7×10^5 colony forming units/ml. Bacterial suspension (100 μl) was dispensed in each well; controls without bacteria were maintained in parallel. To each well was added 11 μl of 10× test peptide and plates were incubated at 37° C. for 18-24 hours, and checked again at 40-48 hours. Plates were read visually and at 600 nm in a microplate reader (Molecular Devices).
(§3) A further number of the peptides of the invention were tested for antimicrobial activity against a range of Gram-positive and Gram-negative bacteria by the assay described immediately before Example 1.

Rabbit RBC = assay type: cell-based
Method: (§4) Erythrocytes from heparinized rabbit or human blood were washed three times with phosphate-buffered saline (PBS; 5 mM phosphate buffer, 0.14 M saline, pH 7.3), and centrifuged at 1000×g for 15 min at 4° C. The erythrocytes were diluted with PBS to 4% (v/v). Dilutions of the peptides in PBS were plated in 100 μl volumes in microtitre plates (Costar 3790, polypropylene) together with 100μl of the erythrocyte suspension. PBS was used as control and 100% lysis was determined in 0.1% Triton X-100. The plates were incubated at 37° C. for 1 h and then centrifuged at 1000×g for 5 min. 100 μl aliquots of the supernatant were transferred to microtitre plates (Nunc, polystyrene), and the release of hemoglobin was monitored by measurement of the absorbance at 540 nm in a microplate reader. The results are shown in Table 6, for peptide concentrations of […]. With only one or two exceptions, little or no hemolysis was seen.

[1] = tested on: Staphylococcus epidermidis (C621); assay type: cell-based
Source text: as §1, §2
(§5) were synthesized. The antibacterial activity of these peptides was determined against both Gram-positive bacteria ([…], Corynebacterium xerosis) and Gram-negative bacteria (various strains of E. coli). The results are shown in Table 2, along with the average hydrophobicity of each peptide, calculated as described herein.
as §3

[2] = tested on: Corynebacterium xerosis (C875); assay type: cell-based
Source text: as §1, §2, §5, §3

E. coli UB1005 = assay type: cell-based, Escherichia coli; settings: UB1005
Source text: as §1, §2, §3

[3] = tested on: C500: E. coli, antibiotic strain; assay type: cell-based; settings: for MIC C500: antibiotic strain
Source text: as §1, §2, §5

[4] = tested on: C498: E. coli, wild type strain; assay type: cell-based; settings: for MIC C498: wild type strain
Source text: as §1, §2, §5

[5] = Hydrophobicity (hydropathy) from reverse-phase HPLC retention scale; assay type: physicochemical; design: key to Average Hydrophobicity of Core Sequence / Mean Core segment Hydrophobicity: arithmetic average of Table 1 hydropathy values of constituent residues; key to Hydropathy: hydropathy scale from HPLC retention times of model peptides (Table 1); settings: for Average Hydrophobicity of Core Sequence: Table 2, calculated from Table 1 hydropathy values
Source text: The “hydrophobicity value” of an amino acid residue means the hydrophobicity value of that residue as shown in Table 1 or as calculated by the method described herein.
The “hydrophobicity value” of an amino acid sequence or peptide means the arithmetic average of the individual hydrophobicity values of the constituent amino acid residues of the sequence.
Various hydrophobicity scales for proteins and amino acids have been described in the literature but the inventors have established the hydrophobicity scale of Table 1 based on the retention times on HPLC of a series of hydrophobic model peptides, as described in Liu and Deber (1998), Biopolymers (Peptide Science), v. 47, pp. 41-62).
The hydrophobicity value shown for each amino acid in Table 1 as “hydropathy” may be used as the hydrophobicity value for that amino acid in any peptide whose hydrophobicity value has to be calculated. The “average hydrophobicity” of a peptide containing amino acids shown in Table 1 is calculated by determining the arithmetic average of the Table 1 “hydropathy” values for the constituent amino acids of the sequence.
Peptides in accordance with the invention may also include other amino acids. For an amino acid not included in Table 1, the hydrophobicity value may be determined by the same method as described herein for obtaining the values of Table 1. For example, a peptide such as KKAAAXAAAAAXAAXAAXAAAKKKK-amide (Sequence ID No: 1) may be synthesized, where X is the amino acid whose hydrophobicity value is to be determined, and the retention time of the peptide on HPLC is determined, as described in the Examples. Similar peptides where X is Lys or Phe are also prepared and their HPLC retention times determined. The retention time, Rx, is converted to the hydropathy value H for the selected amino acid using the equation
H=(10×ΔtRx-Lys/ΔtRPhe-Lys)−5.00
where ΔtRx-Lys=retention time difference in minutes between Rx and the retention time of the most hydrophilic peptide tested (X=Lys) and where ΔtRPhe-Lys=retention time difference in minutes between the most hydrophobic peptide tested (X=Phe) and the most hydrophilic (X=Lys).
The retention time of each peptide was determined on a C4 reversed-phase column (4.6×250 mm, 300 A pore size, 10 μ particle size). Equal amounts of each peptide were injected into the column and eluted at a flow rate of 1 mL/min, utilizing a linear AB gradient (2% B/min), where buffer A was 0.1% TFA/ddH2O, and buffer B was 0.1% TFA/acetonitrile. The retention time of each peptide reported here was the average of triplicate measurements.

Human RBC = assay type: cell-based
Method: as §4

With `C[C@H](NC(=O)[C@H](C)NC(=O)[C@H](C)NC(=O)[C@H](C)NC(=O)[C@H](C)NC(=O)[C@H](C)NC(=O)[C@H](C)NC(=O)[C@H](CCCCN)NC(=O)[C@@H](N)CCCCN)C(=O)N[C@@H](C)C(=O)N[C@@H](C)C(=O)N[C@@H](C)C(=O)N[C@@H](C)C(=O)N[C@@H](C)C(=O)N[C@@H](Cc1c[nH]c2ccccc12)C(=O)N[C@@H](C)C(=O)N[C@@H](C)C(=O)N[C@@H](C)C(=O)N[C@@H](C)C(=O)N[C@@H](C)C(=O)N[C@@H](C)C(=O)N[C@@H](CCCCN)C(=O)N[C@@H](CCCCN)C(=O)N[C@@H](CCCCN)C(=O)N[C@@H](CCCCN)C(N)=O` [Peptide A25] (H-KKAAAAAAAAAAAAWAAAAAAKKKK-NH2; N-terminus assumed) the “MIC E. coli DC2” value (E. coli DC2) was over 64 µM, the “Rabbit RBC (% lysis) 50 μM” value (Rabbit RBC) was 0 % lysis and the “Rabbit RBC (% lysis) 200 μM” value (Rabbit RBC) was 1 % lysis. The “MIC S. epidermidis C621” value [1] was over 64 µM, the “MIC C. xerosis C875” value [2] was 2 µM (≈ 4.5 µg/mL) and the “MIC E. coli UB1005” value (E. coli UB1005) was over 64 µM.

With `CC(C)C[C@H](NC(=O)[C@H](C)NC(=O)[C@H](C)NC(=O)[C@H](C)NC(=O)[C@H](CCCCN)NC(=O)[C@@H](N)CCCCN)C(=O)N[C@@H](C)C(=O)N[C@@H](C)C(=O)N[C@@H](C)C(=O)N[C@@H](C)C(=O)N[C@@H](C)C(=O)N[C@@H](CC(C)C)C(=O)N[C@@H](C)C(=O)N[C@@H](C)C(=O)N[C@@H](Cc1c[nH]c2ccccc12)C(=O)N[C@@H](C)C(=O)N[C@@H](C)C(=O)N[C@@H](CC(C)C)C(=O)N[C@@H](C)C(=O)N[C@@H](C)C(=O)N[C@@H](C)C(=O)N[C@@H](CCCCN)C(=O)N[C@@H](CCCCN)C(=O)N[C@@H](CCCCN)C(=O)N[C@@H](CCCCN)C(N)=O` [Peptide L25] (H-KKAAALAAAAALAAWAALAAAKKKK-NH2; N-terminus assumed) the “MIC E. coli DC2” value (E. coli DC2) was 16 µM (≈ 38 µg/mL), the “MIC C500” value [3] was 6 µM (≈ 14.3 µg/mL) and the “MIC C498” value [4] was 6 µM (≈ 14.3 µg/mL). For the same compound, the “Mean residue hydropathy of X-residue peptide” value ([5]; Table 1) was 1.14, the Hydropathy ([5]; Table 1, of the X-residue, from HPLC retention of KKAAAXAAAAAXAAWAAXAAAKKKK-amide peptides) was 4.76 and the “Average Hydrophobicity of Core Sequence” value [5] was 1.14. For the same compound, the “Mean Core segment Hydrophobicity” value ([5]; Table 3) was 1.14, the “MIC C621” value [1] was 1.5 µM (≈ 3.57 µg/mL) and the “MIC S. epidermidis C621” value [1] was 2 µM (≈ 4.76 µg/mL). For the same compound, the “MIC C875” value [2] was 0.2 µM (≈ 0.476 µg/mL), the “MIC C. xerosis C875” value [2] was under 0.25 µM and the “MIC E. coli UB1005” value (E. coli UB1005) was 32 µM (≈ 76.1 µg/mL).

In the case of `C[C@H](NC(=O)[C@H](C)NC(=O)[C@H](C)NC(=O)[C@H](CO)NC(=O)[C@H](C)NC(=O)[C@H](C)NC(=O)[C@H](C)NC(=O)[C@H](CCCCN)NC(=O)[C@@H](N)CCCCN)C(=O)N[C@@H](C)C(=O)N[C@@H](C)C(=O)N[C@@H](CO)C(=O)N[C@@H](C)C(=O)N[C@@H](C)C(=O)N[C@@H](Cc1c[nH]c2ccccc12)C(=O)N[C@@H](C)C(=O)N[C@@H](C)C(=O)N[C@@H](CO)C(=O)N[C@@H](C)C(=O)N[C@@H](C)C(=O)N[C@@H](C)C(=O)N[C@@H](CCCCN)C(=O)N[C@@H](CCCCN)C(=O)N[C@@H](CCCCN)C(=O)N[C@@H](CCCCN)C(N)=O` [Peptide S25] (H-KKAAASAAAAASAAWAASAAAKKKK-NH2; N-terminus assumed), the “MIC E. coli DC2” value (E. coli DC2) was over 64 µM, the “Human RBC (% lysis) 50 μM” value (Human RBC) was 0 % lysis and the “Human RBC (% lysis) 200 μM” value (Human RBC) was 0 % lysis. The “Rabbit RBC (% lysis) 50 μM” value (Rabbit RBC) was 0 % lysis, the “Rabbit RBC (% lysis) 200 μM” value (Rabbit RBC) was 3 % lysis and the “MIC S. epidermidis C621” value [1] was over 64 µM. The “MIC C. xerosis C875” value [2] was over 64 µM and the “MIC E. coli UB1005” value (E. coli UB1005) was over 64 µM.

For KKATALVGAASLTAWVGLASAKKKK-NH2, the “MIC C500 (active/inactive)” value ([3]; Table 2, class symbols) was “+”, the “MIC C498 (active/inactive)” value ([4]; Table 2, class symbols) was “+” and the “Average Hydrophobicity of Core Sequence” value [5] was 0.62. The “MIC C621 (active/inactive)” value ([1]; Table 2, class symbols) was “+” and the “MIC C875 (active/inactive)” value ([2]; Table 2, class symbols) was “+”.

With `C[C@H](NC(=O)[C@H](C)NC(=O)[C@H](C)NC(=O)[C@H](Cc1c[nH]c2ccccc12)NC(=O)[C@H](C)NC(=O)[C@H](C)NC(=O)[C@H](C)NC(=O)[C@H](CCCCN)NC(=O)[C@@H](N)CCCCN)C(=O)N[C@@H](C)C(=O)N[C@@H](C)C(=O)N[C@@H](Cc1c[nH]c2ccccc12)C(=O)N[C@@H](C)C(=O)N[C@@H](C)C(=O)N[C@@H](Cc1c[nH]c2ccccc12)C(=O)N[C@@H](C)C(=O)N[C@@H](C)C(=O)N[C@@H](Cc1c[nH]c2ccccc12)C(=O)N[C@@H](C)C(=O)N[C@@H](C)C(=O)N[C@@H](C)C(=O)N[C@@H](CCCCN)C(=O)N[C@@H](CCCCN)C(=O)N[C@@H](CCCCN)C(=O)N[C@@H](CCCCN)C(N)=O` [Peptide W25] (H-KKAAAWAAAAAWAAWAAWAAAKKKK-NH2; N-terminus assumed) the “MIC E. coli DC2” value (E. coli DC2) was 8 µM (≈ 20.8 µg/mL), the “MIC C500” value [3] was 3 µM (≈ 7.79 µg/mL) and the “MIC C498” value [4] was 6 µM (≈ 15.6 µg/mL). The “MIC C621” value [1] was 0.7 µM (≈ 1.82 µg/mL), the “MIC S. epidermidis C621” value [1] was under 0.25 µM and the “MIC C875” value [2] was 0.2 µM (≈ 0.519 µg/mL). For the same compound, the “MIC C. xerosis C875” value [2] was under 0.25 µM and the “MIC E. coli UB1005” value (E. coli UB1005) was 16 µM (≈ 41.6 µg/mL).
